# Starred links: 1 amine or outer side, 2 acyl side, 3 side chain; linkers in the order of their positions; H or OH if unused. Non-standard residues stand in square brackets, D forms with d. Residues, ends and D or L forms follow the SMILES beside them. Groups on a side chain read outwards from the residue. *: point of attachment. C20 diacid = O=C(O)CCCCCCCCCCCCCCCCCCC(=O)*; C18 diacid = O=C(O)CCCCCCCCCCCCCCCCC(=O)*; d(βAsp) = O=C(O)[C@@H](CC(=O)[*:2])N[*:1]; 2Nal = N[C@@H](Cc1ccc2ccccc2c1)C(=O)O; AEEA = NCCOCCOCC(=O)O; Aib = CC(C)(N)C(=O)O; Inp = O=C(O)C1CCNCC1; Bn = c1ccc(C*)cc1
# Target: human serum albumin (HSA) (Homo sapiens, UniProt P02768)
# Sequence (P02768 25-609): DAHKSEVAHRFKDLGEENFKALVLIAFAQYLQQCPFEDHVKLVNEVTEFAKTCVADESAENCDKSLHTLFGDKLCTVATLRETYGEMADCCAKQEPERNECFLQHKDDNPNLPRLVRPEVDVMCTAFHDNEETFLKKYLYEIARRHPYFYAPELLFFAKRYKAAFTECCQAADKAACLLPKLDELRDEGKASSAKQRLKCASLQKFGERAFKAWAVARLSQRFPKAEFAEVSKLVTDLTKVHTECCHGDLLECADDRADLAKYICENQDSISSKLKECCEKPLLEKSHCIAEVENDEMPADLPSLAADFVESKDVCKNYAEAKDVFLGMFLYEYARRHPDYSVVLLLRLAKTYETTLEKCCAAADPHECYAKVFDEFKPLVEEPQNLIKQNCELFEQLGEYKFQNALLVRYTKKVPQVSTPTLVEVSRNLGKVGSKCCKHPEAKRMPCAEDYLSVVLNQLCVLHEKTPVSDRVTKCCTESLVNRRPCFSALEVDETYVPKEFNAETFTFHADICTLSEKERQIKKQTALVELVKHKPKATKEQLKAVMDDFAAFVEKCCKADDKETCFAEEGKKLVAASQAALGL
# Experiment: Albumin binding affinity, competition scintillation proximity assay
# Settings: not given
row,EC50 [nM],Structure (SMILES)
1,300 to 800,"CC[C@H](C)[C@H](NC(=O)[C@H](Cc1ccccc1)NC(=O)[C@H](CCC(=O)O)NC(=O)[C@H](CCCNC(=N)N)NC(=O)[C@H](C)NC(=O)[C@H](C)NC(=O)[C@H](CCC(N)=O)NC(=O)[C@H](CCC(=O)O)NC(=O)[C@H](CCC(=O)O)NC(=O)[C@H](CC(C)C)NC(=O)[C@H](Cc1ccc(O)cc1)NC(=O)[C@H](CO)NC(=O)[C@H](CO)NC(=O)[C@@H](NC(=O)[C@H](CC(=O)O)NC(=O)[C@H](CO)NC(=O)[C@@H](NC(=O)[C@H](Cc1ccccc1)NC(=O)[C@@H](NC(=O)CNC(=O)[C@H](CCC(=O)O)NC(=O)[C@H](C)NC(=O)CCc1c[nH]cn1)[C@@H](C)O)[C@@H](C)O)C(C)C)C(=O)N[C@@H](C)C(=O)N[C@@H](Cc1c[nH]c2ccccc12)C(=O)N[C@@H](CC(C)C)C(=O)N[C@H](C(=O)N[C@@H](CCCNC(=N)N)C(=O)NCC(=O)N[C@@H](CCCNC(=N)N)C(=O)N[C@@H](CCCCNC(=O)COCCOCCNC(=O)COCCOCCNC(=O)C[C@@H](NC(=O)C1CCN(C(=O)CCCCCCCCCCCCCCCCCCC(=O)O)CC1)C(=O)O)C(N)=O)C(C)C [Example 1, N-ε^37{2-[2-(2-{2-[2-((R)-3-carboxy-3-{[1-(19-carboxynonadecanoyl)piperidine-4-carbonyl]amino}propionylamino)ethoxy]ethoxy}acetylamino)ethoxy]ethoxy}acetyl [desaminoHis^7,Glu^22,Arg^26,Arg^34,Lys^37]GLP-1(7-37)amide]"
2,800 to 2000,"CC[C@H](C)[C@H](NC(=O)[C@H](Cc1ccc2ccccc2c1)NC(=O)[C@H](CCC(=O)O)NC(=O)[C@H](CCCNC(=N)N)NC(=O)[C@H](C)NC(=O)[C@H](C)NC(=O)[C@H](CCC(N)=O)NC(=O)CNC(=O)[C@H](CCC(=O)O)NC(=O)[C@H](CCCCNC(=O)COCCOCCNC(=O)COCCOCCNC(=O)C[C@@H](NC(=O)C1CCN(C(=O)CCCCCCCCCCCCCCCCC(=O)O)CC1)C(=O)O)NC(=O)[C@H](Cc1ccc(O)cc1)NC(=O)[C@H](CO)NC(=O)[C@H](CO)NC(=O)[C@@H](NC(=O)[C@H](CC(=O)O)NC(=O)[C@H](CO)NC(=O)[C@@H](NC(=O)[C@H](Cc1ccccc1)NC(=O)[C@@H](NC(=O)CNC(=O)[C@H](CCC(=O)O)NC(=O)C(C)(C)NC(=O)[C@@H](N)Cc1c[nH]cn1)[C@@H](C)O)[C@@H](C)O)C(C)C)C(=O)N[C@@H](CCC(=O)O)C(=O)N[C@@H](Cc1c[nH]c2ccccc12)C(=O)N[C@@H](CC(C)C)C(=O)N[C@H](C(=O)N[C@@H](CCCCN)C(=O)NCC(=O)N[C@@H](CCCNC(=N)N)C(=O)NCC(N)=O)C(C)C [Example 11, N-ε^20({2-[2-(2-{2-[2-((R)-3-carboxy-3-{[1-(17-carboxyheptadecanoyl)piperidine-4-carbonyl]amino}propionylamino)ethoxy]ethoxy}acetylamino)ethoxy]ethoxy}acetyl) [Aib^8,Lys^20,Arg^26,2-Naphtylalanine^28, Glu^30]GLP-1 (7-37)amide] (H-H[Aib]EGTFTSDVSSYK([AEEA-AEEA-d(βAsp)-Inp-C18 diacid])EGQAARE[2Nal]IEWLVKGRG-NH2; N-terminus assumed)"
3,100 to 150,"CC[C@H](C)[C@H](NC(=O)[C@H](Cc1ccccc1)NC(=O)[C@H](CCC(=O)O)NC(=O)[C@H](CCCCNC(=O)COCCOCCNC(=O)COCCOCCNC(=O)COCCOCCNC(=O)COCCOCCNC(=O)COCCOCCNC(=O)COCCOCCNC(=O)CC[C@H](NC(=O)CC[C@H](NC(=O)CCCCCCCCCCCNC(=O)CCCS(=O)(=O)NC(=O)CCCCCCCCCCCCCCCc1nnn[nH]1)C(=O)O)C(=O)O)NC(=O)[C@H](C)NC(=O)[C@H](C)NC(=O)[C@H](CCC(N)=O)NC(=O)CNC(=O)[C@H](CCC(=O)O)NC(=O)[C@H](CC(C)C)NC(=O)[C@H](Cc1ccc(O)cc1)NC(=O)[C@H](CO)NC(=O)[C@H](CO)NC(=O)[C@@H](NC(=O)[C@H](CC(=O)O)NC(=O)[C@H](CO)NC(=O)[C@@H](NC(=O)[C@H](Cc1ccccc1)NC(=O)[C@@H](NC(=O)CNC(=O)[C@H](CCC(=O)O)NC(=O)C(C)(C)NC(=O)[C@@H](N)Cc1c[nH]cn1)[C@@H](C)O)[C@@H](C)O)C(C)C)C(=O)N[C@@H](C)C(=O)N[C@@H](Cc1c[nH]c2ccccc12)C(=O)N[C@@H](CC(C)C)C(=O)N[C@H](C(=O)N[C@@H](CCCNC(=N)N)C(=O)NCC(=O)N[C@@H](CCCNC(=N)N)C(N)=O)C(C)C [Example 45, N-epsilon26-[2-(2-{2-[2-(2-{2-[2-(2-{2-[2-(2-{2-[2-(2-{2-[2-(2-{2-[(S)-4-Carboxy-4-((S)-4-carboxy-4-{12-[4-(16-(1H-tetrazol-5-yl)hexadecanoylsulfamoyl)butyrylamino]dodecanoylamino}butyrylamino)butyrylamino]ethoxy}ethoxy)acetylamino]ethoxy}ethoxy)acetylamino]ethoxy}ethoxy)acetylamino]ethoxy}ethoxy)acetylamino]ethoxy}ethoxy)acetylamino]ethoxy}ethoxy)acetyl][Aib8,Lys26,Arg34]GLP-1-(7-36)amide]"

row,Structure (SMILES),EC50 [nM]
1,"CC[C@H](C)[C@H](NC(=O)[C@H](Cc1ccccc1)NC(=O)[C@H](CC(C)C)NC(=O)[C@H](CCCCNC(=O)COCCOCCNC(=O)COCCOCCNC(=O)C[C@@H](NC(=O)C1CCN(C(=O)CCCCCCCCCCCCCCCCCCC(=O)O)CC1)C(=O)O)NC(=O)[C@@H](NC(=O)[C@H](C)NC(=O)[C@H](CCC(=O)O)NC(=O)[C@H](CCC(=O)O)NC(=O)[C@H](CCC(=O)O)NC(=O)[C@H](CC(C)C)NC(=O)[C@H](CCC(N)=O)NC(=O)[C@H](CCCCN)NC(=O)[C@H](CO)NC(=O)[C@H](CC(C)C)NC(=O)[C@H](CC(=O)O)NC(=O)[C@H](CO)NC(=O)[C@@H](NC(=O)[C@H](Cc1ccccc1)NC(=O)[C@@H](NC(=O)CNC(=O)[C@H](CCC(=O)O)NC(=O)C(C)(C)NC(=O)[C@@H](N)Cc1c[nH]cn1)[C@@H](C)O)[C@@H](C)O)C(C)C)C(=O)N[C@@H](CCC(=O)O)C(=O)N[C@@H](Cc1c[nH]c2ccccc12)C(=O)N[C@@H](CC(C)C)C(=O)N[C@@H](CCCCN)C(=O)N[C@@H](CCC(N)=O)C(=O)NCC(=O)NCC(=O)N1CCC[C@H]1C(=O)N[C@@H](CO)C(=O)N[C@@H](CO)C(=O)NCC(=O)N[C@@H](C)C(=O)N1CCC[C@H]1C(=O)N1CCC[C@H]1C(=O)N1CCC[C@H]1C(=O)N[C@@H](COCc1ccccc1)C(N)=O [Example 2, N-ε^20-{2-[2-(2-{2-[2-((R)-3-carboxy-3-{[1-(19-carboxynonadecanoyl)piperidine-4-carbonyl]amino}propionylamino)ethoxy]ethoxy}acetylamino)ethoxy]ethoxy}acetyl [Aib^2,Leu^14,Lys^20,Gln^28,Ser(O-benzyl)^39] exendin-4 (1-39)amide] (H-H[Aib]EGTFTSDLSKQLEEEAVK([AEEA-AEEA-d(βAsp)-Inp-C20 diacid])LFIEWLKQGGPSSGAPPPS(Bn)-NH2)",300 to 800

# Same assay, conditions: human, biotinylated human serum albumin on streptavidin-SPA beads, pH 7.4
row,EC50 at 20 h [nM],Structure (SMILES)
1,1 to 100,"CC[C@H](C)[C@H](NC(=O)[C@H](Cc1ccccc1)NC(=O)[C@H](CCC(=O)O)NC(=O)[C@H](CCCNC(=N)N)NC(=O)[C@H](C)NC(=O)[C@H](C)NC(=O)[C@H](CCC(N)=O)NC(=O)CNC(=O)[C@H](CCC(=O)O)NC(=O)[C@H](CC(C)C)NC(=O)[C@H](Cc1ccc(O)cc1)NC(=O)[C@H](CO)NC(=O)[C@H](CO)NC(=O)[C@@H](NC(=O)[C@H](CC(=O)O)NC(=O)[C@H](CO)NC(=O)[C@@H](NC(=O)[C@H](Cc1ccccc1)NC(=O)[C@@H](NC(=O)CNC(=O)[C@H](CCC(=O)O)NC(=O)[C@H](C)NC(=O)CCc1c[nH]cn1)[C@@H](C)O)[C@@H](C)O)C(C)C)C(=O)N[C@@H](C)C(=O)N[C@@H](Cc1c[nH]c2ccccc12)C(=O)N[C@@H](CC(C)C)C(=O)N[C@H](C(=O)N[C@@H](CCCNC(=N)N)C(=O)NCC(=O)N[C@@H](CCCNC(=N)N)C(=O)N[C@@H](CCCCNC(=O)COCCOCCNC(=O)CC[C@H](NC(=O)CC[C@H](NC(=O)CCCCCCCCCCCNC(=O)CCCS(=O)(=O)NC(=O)CCCCCCCCCCCCCCCc1nnn[nH]1)C(=O)O)C(=O)O)C(=O)O)C(C)C [Example 65, N-epsilon37-[2-(2-{2-[(S)-4-Carboxy-4-((S)-4-carboxy-4-{12-[4-(16-(1H-tetrazol-5-yl)hexadecanoylsulfamoyl)butyrylamino]dodecanoylamino}butyrylamino)butyrylamino]ethoxy}ethoxy)acetyl][DesaminoHis7,Arg26,Arg34,Lys37]GLP-1-(7-37)]"
2,100 to 150,"CC[C@H](C)[C@H](NC(=O)[C@H](Cc1ccccc1)NC(=O)[C@H](CCC(=O)O)NC(=O)[C@H](CCCCNC(=O)COCCOCCNC(=O)CC[C@H](NC(=O)CC[C@H](NC(=O)CCCNC(=O)CCCS(=O)(=O)NC(=O)CCCCCCCCCCCCCCCc1nnn[nH]1)C(=O)O)C(=O)O)NC(=O)[C@H](C)NC(=O)[C@H](C)NC(=O)[C@H](CCC(N)=O)NC(=O)CNC(=O)[C@H](CCC(=O)O)NC(=O)[C@H](CC(C)C)NC(=O)[C@H](Cc1ccc(O)cc1)NC(=O)[C@H](CO)NC(=O)[C@H](CO)NC(=O)[C@@H](NC(=O)[C@H](CC(=O)O)NC(=O)[C@H](CO)NC(=O)[C@@H](NC(=O)[C@H](Cc1ccccc1)NC(=O)[C@@H](NC(=O)CNC(=O)[C@H](CCC(=O)O)NC(=O)C(C)(C)NC(=O)[C@@H](N)Cc1c[nH]cn1)[C@@H](C)O)[C@@H](C)O)C(C)C)C(=O)N[C@@H](C)C(=O)N[C@@H](Cc1c[nH]c2ccccc12)C(=O)N[C@@H](CC(C)C)C(=O)N[C@H](C(=O)N[C@@H](CCCNC(=N)N)C(=O)O)C(C)C [Example 36, N-epsilon26-[2-(2-{2-[(S)-4-Carboxy-4-((S)-4-carboxy-4-{4-[4-(16-(1H-tetrazol-5-yl)hexadecanoylsulfamoyl)butyrylamino]butyrylamino}butyrylamino)butyrylamino]ethoxy}ethoxy)acetyl][Aib8,Arg34]GLP-1-(7-34)]"

# Reference: patent US9067977B2, “Peptides derivatized with A-B-C-D- and their therapeutical use” (Novo Nordisk A/S, priority 2007, dated 2015)
